Columns and labels:
[1] = compound: CN(C)C(=O)c1cc2cnc(Nc3ccc(N4CCNCC4)cn3)nc2n1C1CCCC1 [LEE011/Ribociclib]
[2] = compound: CC[C@@H]1C(=O)N(C)c2cnc(Nc3ccc(C(=O)N[C@H]4CC[C@H](N5CCN(CC6CC6)CC5)CC4)cc3OC)nc2N1C(C)C [Volasertib/BI6727]
[3] = compound: O=C(c1cc(Cc2n[nH]c(=O)c3ccccc23)ccc1F)N1CCN(C(=O)C2CC2)CC1 [Olaparib/AZD2281]
[4] = compound: Cc1nc(-c2cn3c(n2)-c2ccc(-c4cnn(C(C)(C)C(N)=O)c4)cc2OCC3)n(C(C)C)n1 [Taselisib/GDC0032]
[5] = compound: CN1CC[C@H](c2c(O)cc(O)c3c(=O)cc(-c4ccccc4Cl)oc23)[C@H](O)C1 [Flavopiridol]
[6] = compound: CC(=O)c1c(C)c2cnc(Nc3ccc(N4CCN(CCOCCOCCOCCNC(=O)COc5cccc6c5C(=O)N(C5CCC(=O)NC5=O)C6=O)CC4)cn3)nc2n(C2CCCC2)c1=O [BSJ-03-123]
[7] = compound: NC(=O)Nc1cc(-c2cccc(F)c2)sc1C(=O)N[C@H]1CCCNC1 [AZD7762]
[8] = compound: CN(C)C/C=C/C(=O)NC1=CC=C(C=C1)C(=O)NC2=CC=CC(=C2)NC3=NC=NC(=C3)C4=CNC5=CC=CC=C54 [THZ-P1-2]
[9] = compound: C1=CC2=C(C=CC(=C2)C=C3C(=O)NC(=NCC4=CC=CS4)S3)N=C1 [R0-3306]
[10] = compound: CCCCOc1c(C(=O)c2c(F)cc(C)cc2F)c[nH]c2nncc1-2
[11] = compound: COc1cccc2c1C(=O)c1c(O)c3c(c(O)c1C2=O)C[C@@](O)(C(=O)CO)C[C@@H]3O[C@H]1C[C@H](N)[C@H](O)[C@H](C)O1 [Doxorubicin]
[12] = compound: CN(C)CC[C@H](CSc1ccccc1)Nc1ccc(S(=O)(=O)NC(=O)c2ccc(N3CCN(Cc4ccccc4-c4ccc(Cl)cc4)CC3)cc2)cc1[N+](=O)[O-] [ABT-737]
[13] = compound: CCN1CCN(Cc2ccc(Nc3ncc(F)c(-c4cc(F)c5nc(C)n(C(C)C)c5c4)n3)nc2)CC1
[14] = compound: CC1(CCN(CC1)C2=CN=C(C(=N2)N)C3=C(C(=CC=C3)Cl)Cl)N [SHP099]
[15] = compound: CC(=O)Nc1cccc(-n2c(=O)n(C3CC3)c(=O)c3c(Nc4ccc(I)cc4F)n(C)c(=O)c(C)c32)c1
[16] = compound: Cc1nc(NC(=O)N2CCC[C@H]2C(N)=O)sc1-c1ccnc(C(C)(C)C(F)(F)F)c1 [Alpelisib/BYL719]
[17] = compound: CCNC(=O)c1noc(-c2cc(C(C)C)c(O)cc2O)c1-c1ccc(CN2CCOCC2)cc1 [Luminespib/NVP-AUY922]
[18] = compound: COc1ccc2c(c1)[C@]1(C[C@H]1c1ccc3c(/C=C/c4ccc(CN5C[C@@H](C)O[C@@H](C)C5)cc4)n[nH]c3c1)C(=O)N2
[19] = compound: CCc1cnn2c(NCc3ccc[n+]([O-])c3)cc(N3CCCC[C@H]3CCO)nc12
[20] = compound: CN(C)C/C=C/C(=O)Nc1ccc(C(=O)Nc2cccc(Nc3ncc(Cl)c(-c4c[nH]c5ccccc45)n3)c2)cc1 [THZ1]
[21] = compound: COc1cc2nccc(Oc3ccc(NC(=O)C4(C(=O)Nc5ccc(F)cc5)CC4)cc3)c2cc1OC [Cabozantinib]
[22] = compound: CCC1=CN=CN=C1N2CCN(CC2)CC3=NC4=C(N3)C=C(C=C4)C(F)(F)F
[23] = compound: CO[C@@H](C)Cn1c(=O)n(C)c2cnc3ccc(-c4cncc(C(C)(C)O)c4)cc3c21
[24] = compound: CC(C)NC[C@@H](C(=O)N1CCN(c2ncnc3c2[C@H](C)C[C@H]3O)CC1)c1ccc(Cl)cc1 [Ipatasertib/GDC0068]
[25] = compound: CN1CCN(CCOc2cc(OC3CCOCC3)c3c(Nc4c(Cl)ccc5c4OCO5)ncnc3c2)CC1 [Saracatinib/AZD0530]
[26] = compound: O=C(CCCCCCC(=O)Nc1ccccc1)NO [Vorinostat]
[27] = compound: CC(=O)c1c(C)c2cnc(Nc3ccc(N4CCNCC4)cn3)nc2n(C2CCCC2)c1=O
[28] = compound: C1=CC(=CC(=C1)N2C(=O)C=CC3=CN=C4C=CC(=CC4=C32)C5=CN=C(C=C5)N)C(F)(F)F [Torin2]
[29] = compound: NC1(C(=O)N[C@@H](CCO)c2ccc(Cl)cc2)CCN(c2nc[nH]c3nccc2-3)CC1 [AZD5363]
[30] = compound: Cc1nc(Nc2ncc(C(=O)Nc3c(C)cccc3Cl)s2)cc(N2CCN(CCO)CC2)n1 [Dasatinib]
[31] = compound: CNC(=O)c1cccc(-c2ccc3c(N4CCOC[C@@H]4C)nc(N4CCOC[C@@H]4C)nc3n2)c1 [AZD2014]
[32] = compound: CCOc1cc2ncc(C#N)c(Nc3ccc(OCc4ccccn4)c(Cl)c3)c2cc1NC(=O)/C=C/CN(C)C [Neratinib/HKI272]
[33] = compound: C=CCn1c(=O)c2cnc(Nc3ccc(N4CCN(C)CC4)cc3)nc2n1-c1cccc(C(C)(C)O)n1 [AZD1775]
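Note: breast cancer and non-malignant breast epithelial cell lines, Deep Dye Drop or Dye Drop imaging, nine half-log doses, GR normalized to time-zero plates and DMSO-only controls.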

| Cell Line | GR50, 72 h [1] | GR50, 72 h [2] | GR50, 72 h [3] | GR50, 72 h [4] | GR50, 72 h [5] | GR50, 72 h [6] | GR50, 72 h [7] | GR50, 72 h [8] | GR50, 72 h [9] | GR50, 72 h [10] | GR50, 72 h [11] | GR50, 72 h [12] | GR50, 72 h [13] | GR50, 72 h [14] | GR50, 72 h [15] | GR50, 72 h [16] | GR50, 72 h [17] | GR50, 72 h [18] | GR50, 72 h [19] | GR50, 72 h [20] | GR50, 72 h [21] | GR50, 72 h [22] | GR50, 72 h [23] | GR50, 72 h [24] | GR50, 72 h [25] | GR50, 72 h [26] | GR50, 72 h [27] | GR50, 72 h [28] | GR50, 72 h [29] | GR50, 72 h [30] | GR50, 72 h [31] | GR50, 72 h [32] | GR50, 72 h [33] |
| --- | --- | --- | --- | --- | --- | --- | --- | --- | --- | --- | --- | --- | --- | --- | --- | --- | --- | --- | --- | --- | --- | --- | --- | --- | --- | --- | --- | --- | --- | --- | --- | --- | --- |
| 184A1 | 0.285 µM | 0.0124 µM | > 10 µM | 0.192 µM | 0.0383 µM | 0.00892 µM | 2.62 µM | 1.72 µM | 2.78 µM | < 0.001 µM | 0.00333 µM | 3.93 µM | 0.0256 µM | 6.56 µM | 0.00069 µM | 7.72 µM | 0.00549 µM | 0.00198 µM | 0.0086 µM | 0.00774 µM | 8.43 µM | > 10 µM | 0.00147 µM | > 10 µM | 4.62 µM | 2.52 µM | 0.0897 µM | 0.0106 µM | > 10 µM | 0.756 µM | 0.00164 µM | 0.0293 µM | 0.674 µM |
| AU565 | 0.663 µM | 0.00381 µM | > 10 µM | 0.00379 µM | 0.09 µM | 1.21 µM | 0.805 µM | 5.22 µM | 0.478 µM | 0.142 µM | 0.0352 µM | 7.24 µM | 0.0308 µM | > 10 µM | > 1 µM | 0.27 µM | 0.00456 µM | 0.00339 µM | 0.00743 µM | 0.0187 µM | 9.13 µM | 9.42 µM | 0.00478 µM | 3.89 µM | 4.82 µM | 1.07 µM | 0.165 µM | 0.00547 µM | 5.83 µM | 5.35 µM | 0.00361 µM | 0.00121 µM | 0.216 µM |
| BT20 | 0.359 µM | 0.00563 µM | > 10 µM | 0.0181 µM | 0.11 µM | 0.386 µM | 1.1 µM | 6.01 µM | 5.2 µM | 0.002 µM | 0.00874 µM | > 10 µM | 0.0613 µM | > 10 µM | > 1 µM | 2.03 µM | 0.00597 µM | 0.00274 µM | 0.0185 µM | 0.499 µM | 5.35 µM | > 10 µM | 0.00613 µM | 0.645 µM | 4.37 µM | 2.22 µM | 0.0435 µM | 0.0089 µM | 2 µM | 0.68 µM | 0.146 µM | 1.27 µM | 1.9 µM |
| BT474 | > 10 µM | 0.00821 µM | > 10 µM | 0.00452 µM | 0.208 µM | 0.235 µM | 2 µM | 5.82 µM | 3.53 µM | > 10 µM | 0.0267 µM | 5.21 µM |  | > 10 µM | > 1 µM | 0.309 µM | 0.00444 µM | 0.0122 µM | 0.0162 µM | 0.0129 µM | > 10 µM | > 10 µM | < 0.001 µM | 0.521 µM | 0.896 µM | 2.71 µM | > 3.16 µM | 0.00998 µM |  | 0.0392 µM | < 0.001 µM | 0.00166 µM | 0.621 µM |
| BT549 | > 10 µM | 0.00884 µM | > 10 µM | 2.21 µM | 0.161 µM | 6.36 µM | 0.0668 µM | 7.26 µM | 5.42 µM | 0.00106 µM | 0.00648 µM | > 10 µM | 3.97 µM | > 10 µM | > 1 µM | > 10 µM | 0.00539 µM | 0.00315 µM | 0.0124 µM | 0.0528 µM | > 10 µM | > 10 µM | 0.00122 µM | > 10 µM | > 10 µM | 2.37 µM | > 3.16 µM | 0.00951 µM | > 10 µM | 0.592 µM | 0.157 µM | 1.99 µM | 0.318 µM |
| HTERT_HME1 | 1.2 µM | 0.0172 µM | > 10 µM | 0.148 µM | 0.112 µM | 0.366 µM | 0.259 µM | 4.1 µM | 4.01 µM | 0.0012 µM | 0.00471 µM |  | 0.199 µM | > 10 µM | 0.00573 µM | 6.04 µM | 0.00855 µM | 0.0011 µM | 0.0121 µM | 0.00442 µM | 3.24 µM | 5.4 µM | 0.00274 µM | > 10 µM | 7.23 µM | 3.02 µM | 0.222 µM | 0.0253 µM | > 10 µM | 0.183 µM | 0.0169 µM | 0.151 µM | 0.302 µM |
| MCF10A (GM) | > 10 µM |  |  |  | 0.101 µM | 2.21 µM |  | 7.51 µM | 6.32 µM | 0.355 µM |  |  |  | > 10 µM |  |  |  | 0.00625 µM |  | 0.0449 µM |  |  | 0.00578 µM |  |  |  |  |  | > 10 µM |  | 0.034 µM |  | 5.15 µM |
| PDX1206 | > 10 µM |  |  |  | 0.0514 µM | 4.35 µM |  | > 10 µM | 3.6 µM | 0.00176 µM |  |  |  | > 10 µM |  |  |  | 0.00708 µM |  | 0.0255 µM |  |  | 0.00134 µM |  |  |  |  |  | 0.457 µM |  | < 0.001 µM |  | 0.313 µM |
| SUM44PE | 2.54 µM | 0.00884 µM | > 10 µM | 0.00347 µM | 0.0276 µM | 0.818 µM | 0.0479 µM | 0.196 µM | 1.91 µM | < 0.001 µM | 0.0211 µM | 4.3 µM | 0.0473 µM | > 10 µM | > 1 µM | 0.65 µM | 0.00453 µM | 0.000792 µM | 0.00834 µM | 0.00443 µM | 5.47 µM | 6.53 µM | < 0.001 µM | 0.27 µM | 6.6 µM | 1.86 µM | 0.212 µM | 0.00502 µM | 0.0475 µM |  | 0.00197 µM | 0.0248 µM | 0.237 µM |
| SUM149 | > 10 µM | 0.012 µM | 3.87 µM | 2.55 µM | 0.196 µM | 1.33 µM | 0.0774 µM | 6.14 µM | 4.86 µM | 0.0163 µM | 0.00797 µM | 3.63 µM | 0.594 µM | > 10 µM | 0.0112 µM | > 10 µM | 0.00516 µM | 0.00332 µM | 0.0134 µM | 0.0493 µM | 5.87 µM | > 10 µM | 1.55 µM | 4.56 µM | 2.49 µM | 1.37 µM |  | 0.142 µM | 6.67 µM | 0.0931 µM | 1.92 µM | 0.0697 µM | 0.0722 µM |

Reference: the supplement of paper PMC9663587
